In PubChem BioAssay (NCI):
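Values below derive from 48-hour exposures of cells grown in 96-well plates, with endpoints linearly interpolated between the two concentrations bracketing the appropriate inhibition level. GI50 is the concentration that inhibits growth by half. TGI denotes the concentration required for complete inhibition of growth.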

How the values were obtained:
Assay in all cases: DTP human tumour cell line panel, 48 h
[1] = test system: 786-0 renal
[2] = test system: A498 renal
[3] = test system: A549 NSCLC
[4] = test system: ACHN renal
[5] = test system: CAKI-1 renal
[6] = test system: CCRF-CEM leukemia
[7] = test system: COLO 205 colon
[8] = test system: DMS 114 small cell lung
[9] = test system: DMS 273 small cell lung
[10] = test system: EKVX NSCLC
[11] = test system: HCC-2998 colon
[12] = test system: HCT-116 colon
[13] = test system: HCT-15 colon
[14] = test system: HL-60(TB) leukemia
[15] = test system: HOP-18 NSCLC
[16] = test system: HOP-62 NSCLC
[17] = test system: HOP-92 NSCLC
[18] = test system: HT29 colon
[19] = test system: IGROV1 ovarian
[20] = test system: K-562 leukemia
[21] = test system: KM12 colon
[22] = test system: KM20L2 colon
[23] = test system: LXFL 529 NSCLC
[24] = test system: M14 melanoma
[25] = test system: M19-MEL melanoma
[26] = test system: MALME-3M melanoma
[27] = test system: MOLT-4 leukemia
[28] = test system: NCI-H226 lung
[29] = test system: NCI-H23 lung
[30] = test system: NCI-H460 lung
[31] = test system: NCI-H522 lung
[32] = test system: OVCAR-3 ovarian
[33] = test system: OVCAR-4 ovarian
[34] = test system: OVCAR-5 ovarian
[35] = test system: OVCAR-8 ovarian
[36] = test system: RPMI-8226 leukemia
[37] = test system: RXF-631 renal
[38] = test system: SF-268 CNS
[39] = test system: SF-295 CNS
[40] = test system: SF-539 CNS
[41] = test system: SK-MEL-2 melanoma
[42] = test system: SK-MEL-28 melanoma
[43] = test system: SK-MEL-5 melanoma
[44] = test system: SK-OV-3 ovarian
[45] = test system: SN12C renal
[46] = test system: SNB-19 CNS
[47] = test system: SNB-75 CNS
[48] = test system: SNB-78 CNS
[49] = test system: SW-620 colon
[50] = test system: TK-10 renal
[51] = test system: U251 CNS
[52] = test system: UACC-257 melanoma
[53] = test system: UACC-62 melanoma
[54] = test system: UO-31 renal
[55] = test system: XF 498 CNS
[56] = test system: DLD-1 colon
[57] = test system: LOX IMVI melanoma
[58] = test system: RXF 393 renal
[59] = test system: SR leukemia

Cc1ccc(-c2nc3ccccc3c(=O)n2NC2OC(CO)C(O)C(O)C2O)cc1 (stereo unspecified)
TGI [1]: > 100 µM
TGI [2]: > 100 µM
TGI [3]: > 100 µM
TGI [4]: > 100 µM
TGI [5]: > 100 µM
TGI [6]: > 100 µM
TGI [7]: > 100 µM
TGI [8]: > 100 µM
TGI [9]: > 100 µM
TGI [10]: > 100 µM
TGI [11]: > 100 µM
TGI [12]: > 100 µM
TGI [13]: > 100 µM
TGI [14]: > 100 µM
TGI [15]: > 100 µM
TGI [16]: > 100 µM
TGI [17]: > 100 µM
TGI [18]: > 100 µM
TGI [19]: > 100 µM
TGI [20]: > 100 µM
TGI [21]: > 100 µM
TGI [22]: > 100 µM
TGI [23]: > 100 µM
TGI [24]: > 100 µM
TGI [25]: > 100 µM
TGI [26]: > 100 µM
TGI [27]: > 100 µM
TGI [28]: > 100 µM
TGI [29]: > 100 µM
TGI [30]: > 100 µM
TGI [31]: > 100 µM
TGI [32]: > 100 µM
TGI [33]: > 100 µM
TGI [34]: > 100 µM
TGI [35]: > 100 µM
TGI [36]: > 100 µM
TGI [37]: > 100 µM
TGI [38]: > 100 µM
TGI [39]: > 100 µM
TGI [40]: > 100 µM
TGI [41]: > 100 µM
TGI [42]: > 100 µM
TGI [43]: > 100 µM
TGI [44]: > 100 µM
TGI [45]: > 100 µM
TGI [46]: > 100 µM
TGI [47]: > 100 µM
TGI [48]: > 100 µM
TGI [49]: > 100 µM
TGI [50]: > 100 µM
TGI [51]: > 100 µM
TGI [52]: > 100 µM
TGI [53]: > 100 µM
TGI [54]: > 100 µM
TGI [55]: > 100 µM

COC(=O)/C(=N\Nc1nc(=S)[nH]n1N)C(C#N)c1ccc(Cl)cc1 (stereo unspecified)
TGI [1]: > 100 µM
TGI [2]: > 100 µM
TGI [3]: > 100 µM
TGI [4]: > 100 µM
TGI [5]: > 100 µM
TGI [7]: > 100 µM
TGI [56]: > 100 µM
TGI [8]: > 100 µM
TGI [9]: > 100 µM
TGI [10]: > 100 µM
TGI [11]: > 100 µM
TGI [12]: > 100 µM
TGI [13]: > 100 µM
TGI [15]: > 100 µM
TGI [16]: > 100 µM
TGI [17]: > 100 µM
TGI [18]: > 100 µM
TGI [19]: > 100 µM
TGI [21]: > 100 µM
TGI [22]: > 100 µM
TGI [57]: > 100 µM
TGI [23]: > 100 µM
TGI [24]: > 100 µM
TGI [25]: > 100 µM
TGI [26]: > 100 µM
TGI [28]: > 100 µM
TGI [29]: > 100 µM
TGI [30]: > 100 µM
TGI [32]: > 100 µM
TGI [33]: > 100 µM
TGI [34]: > 100 µM
TGI [35]: > 100 µM
TGI [36]: > 100 µM
TGI [58]: > 100 µM
TGI [37]: > 100 µM
TGI [38]: > 100 µM
TGI [39]: > 100 µM
TGI [40]: > 100 µM
TGI [41]: > 100 µM
TGI [42]: > 100 µM
TGI [44]: > 100 µM
TGI [45]: > 100 µM
TGI [46]: > 100 µM
TGI [47]: > 100 µM
TGI [48]: > 100 µM
TGI [49]: > 100 µM
TGI [50]: > 100 µM
TGI [51]: > 100 µM
TGI [52]: > 100 µM
TGI [53]: > 100 µM
TGI [54]: > 100 µM
TGI [55]: > 100 µM

COc1cc(Cn2c3ccccc3c3cc(C)cc(OC)c32)cc2c1[nH]c1ccccc12
TGI [1]: > 25 µM
GI50 [3]: 23.2 µM
TGI [3]: > 25 µM
GI50 [4]: 12.2 µM
TGI [4]: > 25 µM
GI50 [6]: 12 µM
TGI [6]: > 25 µM
TGI [7]: > 25 µM
TGI [56]: > 25 µM
TGI [8]: > 25 µM
GI50 [9]: 15.2 µM
TGI [9]: > 25 µM
TGI [11]: > 25 µM
TGI [12]: > 25 µM
GI50 [13]: 16.8 µM
TGI [13]: > 25 µM
GI50 [14]: 12.3 µM
TGI [14]: > 25 µM
GI50 [16]: 6.63 µM
TGI [16]: 17.4 µM
GI50 [17]: 5.39 µM
TGI [17]: > 25 µM
GI50 [18]: 16.9 µM
TGI [18]: > 25 µM
TGI [19]: > 25 µM
GI50 [20]: 9.7 µM
TGI [20]: > 25 µM
GI50 [21]: 10.2 µM
TGI [21]: > 25 µM
GI50 [22]: 15.4 µM
TGI [22]: > 25 µM
GI50 [57]: 8.19 µM
TGI [57]: > 25 µM
GI50 [23]: 17 µM
TGI [23]: > 25 µM
GI50 [24]: 6.27 µM
TGI [24]: 20.2 µM
TGI [25]: > 25 µM
TGI [26]: > 25 µM
GI50 [27]: 8.51 µM
TGI [27]: > 25 µM
GI50 [28]: 17 µM
TGI [28]: > 25 µM
GI50 [30]: 10.8 µM
TGI [30]: > 25 µM
GI50 [31]: 5.43 µM
TGI [31]: 21 µM
TGI [32]: > 25 µM
TGI [34]: > 25 µM
TGI [35]: > 25 µM
TGI [36]: > 25 µM
GI50 [38]: 17.5 µM
TGI [38]: > 25 µM
GI50 [40]: 9.83 µM
TGI [40]: > 25 µM
TGI [41]: > 25 µM
TGI [42]: > 25 µM
TGI [43]: > 25 µM
TGI [44]: > 25 µM
TGI [45]: > 25 µM
TGI [46]: > 25 µM
TGI [48]: > 25 µM
GI50 [59]: 16.6 µM
TGI [59]: > 25 µM
GI50 [49]: 13.4 µM
TGI [49]: > 25 µM
TGI [50]: > 25 µM
TGI [51]: > 25 µM
GI50 [53]: 15 µM
TGI [53]: > 25 µM
TGI [54]: > 25 µM

CC(Oc1ccc2c(=O)cc(-c3ccccc3)oc2c1)C(=O)O (stereo unspecified)
TGI [1]: > 100 µM
TGI [2]: > 100 µM
TGI [3]: > 100 µM
TGI [4]: > 100 µM
TGI [5]: > 100 µM
TGI [6]: > 100 µM
TGI [7]: > 100 µM
TGI [56]: > 100 µM
TGI [8]: > 100 µM
TGI [10]: > 100 µM
TGI [11]: > 100 µM
TGI [12]: > 100 µM
TGI [14]: > 100 µM
TGI [15]: > 100 µM
TGI [16]: > 100 µM
TGI [17]: > 100 µM
TGI [18]: > 100 µM
TGI [19]: > 100 µM
TGI [20]: > 100 µM
TGI [21]: > 100 µM
TGI [22]: > 100 µM
TGI [57]: > 100 µM
TGI [23]: > 100 µM
TGI [24]: > 100 µM
TGI [25]: > 100 µM
TGI [26]: > 100 µM
TGI [27]: > 100 µM
TGI [28]: > 100 µM
TGI [29]: > 100 µM
TGI [30]: > 100 µM
TGI [31]: > 100 µM
TGI [32]: > 100 µM
TGI [33]: > 100 µM
TGI [35]: > 100 µM
TGI [58]: > 100 µM
TGI [38]: > 100 µM
TGI [39]: > 100 µM
TGI [40]: > 100 µM
TGI [42]: > 100 µM
TGI [43]: > 100 µM
TGI [44]: > 100 µM
TGI [45]: > 100 µM
TGI [46]: > 100 µM
TGI [47]: > 100 µM
TGI [48]: > 100 µM
TGI [59]: > 100 µM
TGI [49]: > 100 µM
TGI [50]: > 100 µM
TGI [51]: > 100 µM
TGI [52]: > 100 µM
TGI [53]: > 100 µM
TGI [54]: > 100 µM
TGI [55]: > 100 µM
